Test results: EPA's ToxValDB 9.5 (doi:10.2903/j.efsa.2006.91r)
≈ marks a conversion by molar mass, not a printed value.

How the values were obtained:
Daphnia magna = settings: chronic/long-term; duration: 21 days; reproduction
Aphidius rhopalosiphi = settings: acute; duration: 2 days; mortality
Bird = settings: acute; oral; unspecified; mortality
Oryctolagus sp. = settings: acute; oral; mortality
Apis mellifera = settings: acute; duration: 48 hours; dermal; mortality
Lepomis macrochirus = settings: acute; duration: 96 hours; mortality
Canidae = settings: chronic; duration: 1 years; oral; Dog Other; clinical signs

`CCCCN(CCCC)SN(C)C(=O)Oc1cccc2c1OC(C)(C)C2` [Carbosulfan] was tested, and the NOEC (Daphnia magna) was 0.0032 mg/L, the LEL (Aphidius rhopalosiphi) was 120 g/ha and the LD50 (Bird) was 10 mg/kg. The LD50 (Oryctolagus sp.) was 42.7 mg/kg-day, the NOEL (Anas platyrhynchos; acute, oral, unspecified, mortality) was 2.51 mg/kg and the NOEL (Anas platyrhynchos; reproductive) was 2.5 mg/kg-day. For the same molecule, the LC50 (Anas platyrhynchos; short-term, oral, feed, mortality) was 3.99 mg/kg-day, the NOAEL (Rattus norvegicus; chronic, duration: 104 weeks, neurology) was 1 mg/kg-day and the NOAEL (Rattus norvegicus; subchronic, duration: 90 days, oral, clinical chemistry) was 2 mg/kg-day. For the same molecule, the LD50 (Apis mellifera) was 0.18 µg/piece and the LC50 (Lepomis macrochirus) was 0.015 µg/mL (≈ 0.0394 µM).
`CNC(=O)Oc1cccc2c1OC(C)(C)C2` [Carbofuran] was tested, and the NOAEL (Canidae) was 0.1 mg/kg-day and the NOAEL (Rattus norvegicus; reproduction developmental) was 0.1 mg/kg-day.
